# In US11078202B2, “β-lactamase inhibitor and use thereof” (priority 2018, dated 2021):
# Tests used:
# Format in all cases: cell-based
# [1] = test system: Escherichia coli XNWB 0010 (SHV-2); experiment: MIC of antibiotics alone, broth microdilution; conditions: antibiotic alone, E. coli XNWB 0010, β-lactamase SHV-2
# Method: (§1) The bacterial strains used for the minimum inhibitory concentration (MIC) test were frozen in a −80° C. ULT freezer and thawed 2 days before use. A small amount of frozen bacterial strains were scraped using a sterile inoculating loop, streaked onto a TSA solid culture dish for inoculation, and then cultured for 20-24 h at 35±2° C. in a normal atmospheric environment.
# (§2) 5-10 colonies with similar morphology were picked from the culture dish using a sterile inoculating loop and then re-streaked onto a suitable solid culture dish. Then the dish was placed into a normal incubator for culture for 20-24 h at 35±2° C.
# (§3) 5-10 single bacterial colonies were picked from the solid culture dish, resuspended in 500 μL of 0.9% NaCl, and adjusted to an OD600 of 0.1-0.15 with a spectrophotometer.
# (§4) The bacteria were then diluted 300-fold with 1.1×CAMHB.
# (§5) After addition, the 6 assay plates were covered by sterile covers. The mixtures in the assay plates were centrifuged by a centrifuge at 1000 rpm for 30 s, and mixed uniformly by oscillating with a microplate oscillator at 800 rpm for 1 min, and then cultured in a common incubator for 16-20 h at 35±2° C.
# (§6) The minimum inhibitory concentration of each compound was recorded by reference to guidelines from the Clinical and Laboratory Standards Institute.
# (§7) The minimum inhibitory concentrations of the compounds of the present invention and antibiotics (imipenem, ceftazidime, and ampicillin) against 11 strains of bacteria were tested in this study by reference to the medium microdilution method as indicated by the Clinical and Laboratory Standards Institute. The effect of the test compounds in combination with imipenem, ceftazidime, and ampicillin was also tested. Compounds were diluted two-fold in 96-well plates from the highest detection concentration of 64 μg/mL. The test compounds were tested in combination with a fixed concentration of imipenem (4 μg/mL), ceftazidime (8 μg/mL), and ampicillin (8 μg/mL). The bacterial inocula in the assay plates were resuscitated from TSA and diluted in CAMHB, while growth controls (GC wells) and sterile controls (SC wells) were set up in the assay plates.
# [2] = test system: Klebsiella pneumoniae XNWB 0001 (KPC-1/2); experiment: MIC of antibiotics alone, broth microdilution; conditions: antibiotic alone, K. pneumoniae XNWB 0001, β-lactamase KPC-1/2
# Method: as §1, §2, §3, §4, §5, §6, §7
# [3] = test system: Enterobacter aerogenes XNWB 0011 (TEM-10); experiment: MIC of antibiotics alone, broth microdilution; conditions: Klebsiella aerogenes; antibiotic alone; E. aerogenes XNWB 0011, β-lactamase TEM-10
# Method: as §1, §2, §3, §4, §5, §6, §7
# [4] = test system: Klebsiella pneumoniae XNWB 0003 (KPC-11, SHV-12); experiment: MIC of antibiotics alone, broth microdilution
# Method: as §1, §2, §3, §4, §5, §6, §7
# [5] = test system: Klebsiella pneumoniae XNWB 0005 (KPC-3); experiment: MIC of antibiotics alone, broth microdilution
# Method: as §1, §2, §3, §4, §5, §6, §7
# [6] = test system: Acinetobacter baumannii XNWB 0007 (AmpC); experiment: MIC of antibiotics alone, broth microdilution; conditions: antibiotic alone, A. baumannii XNWB 0007, β-lactamase AmpC
# Method: as §1, §2, §3, §4, §5, §6, §7
# [7] = test system: Escherichia coli XNWB 0009 (SHV-5A); experiment: MIC of antibiotics alone, broth microdilution
# Method: as §1, §2, §3, §4, §5, §6, §7
# [8] = test system: Klebsiella pneumoniae XNWB 0006 (CTX-M-15, SHV); experiment: MIC of antibiotics alone, broth microdilution
# Method: as §1, §2, §3, §4, §5, §6, §7
# [9] = test system: Pseudomonas aeruginosa XNWB 0008 (AmpC); experiment: MIC of antibiotics alone, broth microdilution
# Method: as §1, §2, §3, §4, §5, §6, §7
# [10] = test system: Klebsiella pneumoniae XNWB 0004 (KPC-2, SHV-12); experiment: microbe, parasite or virus in culture
# Method: as §1, §2, §3, §4, §5, §6, §7
# [11] = test system: Klebsiella pneumoniae XNWB 0002 (KPC-2, SHV-5); experiment: microbe, parasite or virus in culture
# Method: as §1, §2, §3, §4, §5, §6, §7
compound,measurement,setting,value
CC(C)(O/N=C(\C(=O)N[C@@H]1C(=O)N2C(C(=O)[O-])=C(C[n+]3ccccc3)CS[C@H]12)c1csc(N)n1)C(=O)O [Ceftazidime],MIC,[1],4 to 16 mg/L
same,MIC,[2],64 to 128 mg/L
same,MIC,[3],0.5 to 1 mg/L
same,MIC,[4],> 128 mg/L
same,MIC,[5],> 128 mg/L
same,MIC,[6],64 mg/L
same,MIC,[7],16 to 32 mg/L
same,MIC,[8],> 128 mg/L
same,MIC,[9],128 mg/L
same,MIC,[10],> 128 mg/L
same,MIC,[11],128 mg/L
